Test results reported in patent US10266544B2, “Aryl substituted aminomethyl spectinomycin analogs as antibacterial agents” (ST. JUDE CHILDREN'S RESEARCH HOSPITAL, INC., priority 2013, dated 2019).
Where a name gives a salt, the structure may show the parent alone. Read-outs that look alike come from different tables or passages of the source.

Experiments:
Type in all cases: cell-based
[1] = test system: Legionella pneumophila (ATCC 33153); assay: microbe, parasite or virus in culture; settings: ATCC33153, 72 h, read-out: Zone of inhibition L.p.
[2] = test system: Bacillus anthracis, Sterne 34F2; assay: microbe, parasite or virus in culture; settings: STERNE34F2, read-out: MIC B.a.
[3] = test system: live vaccine strain (LVS) of Francisella tularensis; assay: microbe, parasite or virus in culture; settings: Francisella tularensis, read-out: MIC F.t.
[4] = test system: Streptococcus pneumoniae clinical isolates representing several serotypes; assay: MIC determination, Streptococcus pneumoniae panel of clinical isolates (Table 7); settings: Streptococcus pneumoniae
[5] = test system: M. tuberculosis clinical isolates; assay: microbe, parasite or virus in culture; settings: Mycobacterium tuberculosis
[6] = test system: Enterococcus faecalis (ATCC 33186); assay: MIC determination, microbroth dilution; settings: ATCC33186; Enterococcus faecalis (ATCC 33186); read-out: MIC E.f.
[7] = test system: Bacillus subtilis (ATCC 23857); assay: MIC determination, microbroth dilution; settings: ATCC23857; Bacillus subtilis (ATCC 23857); read-out: MIC B.s.
[8] = test system: MRSA, Staphylococcus aureus (NRS70); assay: MIC determination, microbroth dilution; settings: Staphylococcus aureus (NRS70); read-out: MIC MRSA
[9] = test system: Klebsiella pneumoniae (ATCC 33495); assay: MIC determination, microbroth dilution; settings: ATCC33495
[10] = test system: Proteus vulgaris (ATCC 33420); assay: MIC determination, microbroth dilution; settings: ATCC33420
[11] = test system: Burkholderia cepacia (ATCC 25416); assay: MIC determination, microbroth dilution; settings: Burkholderia cepacia
[12] = test system: Neisseria gonorrhoeae (ATCC 49226); assay: Disc diffusion assay; settings: ATCC49226, 4 μg per disc, read-out: Zone of inhibition N.g.
[13] = test system: Pseudomonas aeruginosa (PA01); assay: MIC determination, microbroth dilution
[14] = test system: Streptococcus pneumoniae (R6); assay: MIC determination, microbroth dilution
[15] = test system: Escherichia coli (ATCC 700926); assay: MIC determination, microbroth dilution; settings: ATCC700926; Escherichia coli (ATCC 700926); read-out: MIC E.c.
[16] = test system: Proteus mirabilis (ATCC 25933); assay: MIC determination, microbroth dilution; settings: ATCC25933
Yersinia pestis = assay: microbe, parasite or virus in culture; settings: read-out: MIC Y.p.
[17] = test system: Staphylococcus aureus (ATCC 29213); assay: MIC determination, microbroth dilution
Listeria monocytogenes = assay: MIC determination (Table 6)
Moraxella catarrhalis = assay: MIC determination (Table 6)
Bacillus anthracis = assay: microbe, parasite or virus in culture; settings: read-out: MIC B.a.
[18] = test system: acinetobacter baumannii (ATCC 19606); assay: MIC determination, microbroth dilution; settings: ATCC19606
[19] = test system: Stenotrophomonas maltophilia (ATCC 13637); assay: MIC determination, microbroth dilution
[20] = test system: Streptococcus pyogenes (ATCC 700294); assay: MIC determination, microbroth dilution; settings: ATCC700294; Streptococcus pyogenes (ATCC 700294); read-out: MIC S. py.
E. coli K12 ΔtolC = assay: microbe, parasite or virus in culture; settings: Escherichia coli, read-out: MIC E.c. Δtolc
[21] = test system: Haemophilus influenza (ATCC 49247); assay: microbe, parasite or virus in culture; settings: ATCC49247; Haemophilus influenza; 4 μg per disc; range of at least two experiments; read-out: Zone of inhibition H.i.
[22] = test system: Neisseria meningitides (ATCC 13077); assay: Disc diffusion assay; settings: ATCC13077, 4 μg per disc, read-out: Zone of inhibition N.m.
[23] = test system: Neisseria gonorrhoeae (ATCC 49226); assay: Agar MIC determination (Alamar Blue); settings: ATCC49226, agar MIC, read-out: MIC N.g.
[24] = ATCC25416, read-out: MIC B.c., Burkholderia cepacia (ATCC 25416)
[25] = ATCC25416, read-out: MIC B.c., Burkholderia cepacia, Table 6
[26] = Streptococcus pneumoniae (R6), read-out: MIC S. pn.

Structure (SMILES): CN[C@@H]1[C@H](O)[C@H](NC)[C@H]2O[C@]3(O)[C@H](O[C@@H]2[C@H]1O)O[C@H](C)C[C@@]3(O)CNCCc1ccccc1 [compound 6, 3′-(R)-3′-(phenethylaminomethyl)dihydrospectinomycin Trihydrochloride]
- zone of inhibition at 4 µg/disc [1]: 36 mm
- MIC [2]: 6.3 to 12.5 µg/mL
- MIC [3]: 1.6 µg/mL
- MIC ([4]; BAA1407, S. pneumoniae BAA-1407, Macrolide Resistant, read-out: MIC BAA-1407): 12.5 µg/mL
- MIC ([4]; S. pneumoniae A66.1x, Drug Susceptible, read-out: MIC A66.1x): 3.1 µg/mL
- MIC ([4]; S. pneumoniae BHN97x, Drug Susceptible, read-out: MIC BHN97x): 3.1 µg/mL
- MIC ([4]; S. pneumoniae D39X, Drug Susceptible, read-out: MIC D39X): 3.1 µg/mL
- MIC ([4]; S. pneumoniae Daw7, PenG Resistant, read-out: MIC Daw7): 6.3 µg/mL
- MIC ([4]; S. pneumoniae Daw8, PenG Resistant, read-out: MIC Daw8): 6.3 µg/mL
- MIC ([4]; S. pneumoniae Daw9, PenG Resistant, read-out: MIC Daw9): 6.3 µg/mL
- MIC ([4]; S. pneumoniae Daw62, PenG Resistant, read-out: MIC Daw62): 6.3 µg/mL
- MIC ([4]; S. pneumoniae Daw64, PenG Resistant, read-out: MIC Daw64): 6.3 µg/mL
- MIC ([4]; S. pneumoniae OVA6, Macrolide Resistant, read-out: MIC OVA6): 3.1 µg/mL
- MIC ([4]; S. pneumoniae T4X, Drug Susceptible, read-out: MIC T4X): 3.1 µg/mL
- MIC ([5]; H37RV, read-out: MIC H37Rv): 1.6 µg/mL
- MIC ([5]; read-out: MIC TN022): 3.1 µg/mL
- MIC ([5]; read-out: MIC TN026): 3.1 µg/mL
- MIC [6]: 12.5 µg/mL
- MIC [7]: 1.6 µg/mL
- MIC [8]: 12.5 to 25 µg/mL
- MIC [9]: 25 to 50 µg/mL
- MIC [10]: 50 to 100 µg/mL
- MIC [11, 24]: > 200 µg/mL
- MIC [11, 25]: > 200 µg/mL
- zone of inhibition at 4 µg/disc [12]: 16 mm
- MIC [13]: ≥ 200 µg/mL
- MIC [14, 26]: 3.1 µg/mL
- MIC ([14]; Streptococcus pneumoniae, S. pneumoniae R6, Drug Susceptible, read-out: MIC R6): 6.3 µg/mL
- MIC [15]: 6.3 to 12.5 µg/mL
- MIC [16]: > 200 µg/mL
- MIC (Yersinia pestis): 200 µg/mL
- MIC ([17]; Staphylococcus aureus, ATCC29213, read-out: MIC S.a.): 6.3 to 12.5 µg/mL
- MIC (Listeria monocytogenes): 3.1 µg/mL
- MIC (Moraxella catarrhalis): 0.4 µg/mL
- MIC (Bacillus anthracis): 6.3 to 12.5 µg/mL
- MIC [18]: > 200 µg/mL
- MIC ([19]; ATCC13637, Stenotrophomonas maltophilia (ATCC 13637), read-out: MIC S.m.): 1.6 µg/mL
- MIC [20]: 3.1 µg/mL
- MIC (E. coli K12 ΔtolC): 3.1 to 6.3 µg/mL
- zone of inhibition at 4 µg/disc [21]: 14 mm
- zone of inhibition at 4 µg/disc [22]: 16 mm

Structure (SMILES): CN[C@@H]1[C@H](O)[C@H](NC)[C@H]2O[C@]3(O)[C@H](O[C@@H]2[C@H]1O)O[C@H](C)C[C@@]3(O)CNCc1ccc(F)c(F)c1 [compound 12, 3′-(R)-3′-[(3,4-difluoro)benzylaminomethyl)]dihydrospectinomycin Trihydrochloride]
- MIC [2]: 50 µg/mL
- MIC [3]: 3.1 to 6.3 µg/mL
- MIC ([5]; H37RV, read-out: MIC H37Rv): 50 µg/mL
- MIC [6]: 50 µg/mL
- MIC [7]: 25 to 50 µg/mL
- MIC [8]: 200 µg/mL
- MIC [9]: > 200 µg/mL
- MIC [10]: > 200 µg/mL
- MIC [11, 24]: ≥ 200 µg/mL
- MIC [11, 25]: ≥ 200 µg/mL
- zone of inhibition at 4 µg/disc [12]: 15 to 17 mm
- MIC [13]: ≥ 200 µg/mL
- MIC [14, 26]: 6.3 µg/mL
- MIC [15]: 25 to 50 µg/mL
- MIC [16]: > 200 µg/mL
- MIC (Yersinia pestis): 200 µg/mL
- MIC ([17]; ATCC29213, Staphylococcus aureus (ATCC 29213), read-out: MIC S.a.): 100 to 200 µg/mL
- MIC (Listeria monocytogenes): 6.3 to 12.5 µg/mL
- MIC (Moraxella catarrhalis): 6.3 to 12.5 µg/mL
- MIC (Bacillus anthracis): 50 µg/mL
- MIC [18]: ≥ 200 µg/mL
- MIC ([19]; Stenotrophomonas maltophilia, ATCC13637, read-out: MIC S.m.): 12.5 to 25 µg/mL
- MIC [20]: 3.1 µg/mL
- MIC (E. coli K12 ΔtolC): 12.5 to 25 µg/mL
- zone of inhibition at 4 µg/disc [21]: 16 to 17 mm
- MIC [23]: 25 to 50 µg/mL
- zone of inhibition at 4 µg/disc [22]: 17 mm
